Reference: patent US4442044A, “Process for preparing monoesters and diesters of N-alkyl substituted amino methyl phosphonic acid” (priority 1983, dated 1984)

How the values were obtained:
Assay in all cases: post-emergent herbicidal activity, greenhouse
Type in all cases: in vivo
[1] = tested on: Barnyardgrass
Outline: (§1)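 Post-emergence foliar spray at tabulated application rates, using aliquots of a 1.0% stock in acetone, THF or water plus ~0.4% emulsifier, applied to 2–3-week-old greenhouse plants. Plant injury was rated relative to controls roughly two and four weeks after treatment.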

[2] = tested on: Canada Thistle; settings: Table I, 4 WAT
Outline: as §1

[3] = tested on: Cocklebur; settings: 4 WAT
Outline: as §1

[4] = tested on: Crabgrass; settings: Table II
Outline: as §1

[5] = tested on: Downy Brome
Outline: as §1

[6] = tested on: Hemp Sesbania; settings: Table II, 1.12 kg/h
Outline: as §1

[7] = tested on: Johnsongrass; settings: Table I, 4 WAT
Outline: as §1

[8] = tested on: Lambsquarters
Outline: as §1

[9] = tested on: Morningglory
Outline: as §1

[10] = tested on: Panicum Spp; settings: Table II
Outline: as §1

[11] = tested on: Quackgrass; settings: Table I, 4 WAT
Outline: as §1

[12] = tested on: Rice; settings: Table II
Outline: as §1

[13] = tested on: Smartweed; settings: 4 WAT
Outline: as §1

[14] = tested on: Sorghum; settings: Table II
Outline: as §1

[15] = tested on: Soybean; settings: Table II
Outline: as §1

[16] = tested on: Sugar Beet; settings: Table II
Outline: as §1

[17] = tested on: Velvetleaf
Outline: as §1

[18] = tested on: Wheat; settings: Table II
Outline: as §1

[19] = tested on: Wild Buckwheat; settings: Table II
Outline: as §1

[20] = tested on: Yellow Nutsedge; settings: Table I, 4 WAT
Outline: as §1

## CCOC(=O)CNCP(=O)(OCC1COC(C)(C)O1)OCC1COC(C)(C)O1 (stereo not shown) [Example 22, glycine, N-[[bis[(2,2-dimethyl-1,3-dioxolan-4-yl)methoxy]phosphinyl]methyl]-, ethyl ester]
[1]; Table I, 4 WAT, 11.2 kg/h
  post-emergent herbicidal activity index: 3 (75-99% control)
[1]; Table I, 4 WAT, 56.0 kg/h
  post-emergent herbicidal activity index: 3 (75-99% control)
[1]; Table II, 2 WAT, 1.12 kg/h
  post-emergent herbicidal activity index: 1 (25-49% control)
[1]; Table II, 4 WAT, 5.6 kg/h
  post-emergent herbicidal activity index: 2 (50-74% control)
[2]; 11.2 kg/h
  post-emergent herbicidal activity index: 0 (0-24% control)
[2]; 56.0 kg/h
  post-emergent herbicidal activity index: 2 (50-74% control)
[3]; Table I, 11.2 kg/h
  post-emergent herbicidal activity index: 0 (0-24% control)
[3]; Table I, 56.0 kg/h
  post-emergent herbicidal activity index: 2 (50-74% control)
[3]; Table II, 5.6 kg/h
  post-emergent herbicidal activity index: 0 (0-24% control)
[4]; 2 WAT, 1.12 kg/h
  post-emergent herbicidal activity index: 1 (25-49% control)
[4]; 4 WAT, 5.6 kg/h
  post-emergent herbicidal activity index: 2 (50-74% control)
[5]; Table I, 4 WAT, 11.2 kg/h
  post-emergent herbicidal activity index: 0 (0-24% control)
[5]; Table I, 4 WAT, 56.0 kg/h
  post-emergent herbicidal activity index: 2 (50-74% control)
[5]; Table II, 2 WAT, 1.12 kg/h
  post-emergent herbicidal activity index: 0 (0-24% control)
[5]; Table II, 4 WAT, 5.6 kg/h
  post-emergent herbicidal activity index: 0 (0-24% control)
[6]; 2 WAT
  post-emergent herbicidal activity index: 2 (50-74% control)
[7]; 11.2 kg/h
  post-emergent herbicidal activity index: 0 (0-24% control)
[7]; 56.0 kg/h
  post-emergent herbicidal activity index: 1 (25-49% control)
[8]; Table I, 4 WAT, 11.2 kg/h
  post-emergent herbicidal activity index: 0 (0-24% control)
[8]; Table I, 4 WAT, 56.0 kg/h
  post-emergent herbicidal activity index: 3 (75-99% control)
[8]; Table II, 2 WAT, 1.12 kg/h
  post-emergent herbicidal activity index: 1 (25-49% control)
[8]; Table II, 4 WAT, 5.6 kg/h
  post-emergent herbicidal activity index: 0 (0-24% control)
[9]; Table I, 4 WAT, 11.2 kg/h
  post-emergent herbicidal activity index: 1 (25-49% control)
[9]; Table I, 4 WAT, 56.0 kg/h
  post-emergent herbicidal activity index: 2 (50-74% control)
[9]; Table II, 2 WAT, 1.12 kg/h
  post-emergent herbicidal activity index: 0 (0-24% control)
[9]; Table II, 4 WAT, 5.6 kg/h
  post-emergent herbicidal activity index: 1 (25-49% control)
[10]; 2 WAT, 1.12 kg/h
  post-emergent herbicidal activity index: 0 (0-24% control)
[10]; 4 WAT, 5.6 kg/h
  post-emergent herbicidal activity index: 3 (75-99% control)
[11]; 11.2 kg/h
  post-emergent herbicidal activity index: 0 (0-24% control)
[11]; 56.0 kg/h
  post-emergent herbicidal activity index: 3 (75-99% control)
[12]; 2 WAT, 1.12 kg/h
  post-emergent herbicidal activity index: 0 (0-24% control)
[12]; 4 WAT, 5.6 kg/h
  post-emergent herbicidal activity index: 0 (0-24% control)
[13]; Table I, 11.2 kg/h
  post-emergent herbicidal activity index: 0 (0-24% control)
[13]; Table I, 56.0 kg/h
  post-emergent herbicidal activity index: 3 (75-99% control)
[14]; 2 WAT, 1.12 kg/h
  post-emergent herbicidal activity index: 0 (0-24% control)
[14]; 4 WAT, 5.6 kg/h
  post-emergent herbicidal activity index: 1 (25-49% control)
[15]; 2 WAT, 1.12 kg/h
  post-emergent herbicidal activity index: 0 (0-24% control)
[15]; 4 WAT, 5.6 kg/h
  post-emergent herbicidal activity index: 0 (0-24% control)
[16]; 2 WAT, 1.12 kg/h
  post-emergent herbicidal activity index: 0 (0-24% control)
[16]; 4 WAT, 5.6 kg/h
  post-emergent herbicidal activity index: 0 (0-24% control)
[17]; Table I, 4 WAT, 11.2 kg/h
  post-emergent herbicidal activity index: 0 (0-24% control)
[17]; Table I, 4 WAT, 56.0 kg/h
  post-emergent herbicidal activity index: 2 (50-74% control)
[17]; Table II, 2 WAT, 1.12 kg/h
  post-emergent herbicidal activity index: 0 (0-24% control)
[17]; Table II, 4 WAT, 5.6 kg/h
  post-emergent herbicidal activity index: 1 (25-49% control)
[18]; 2 WAT, 1.12 kg/h
  post-emergent herbicidal activity index: 0 (0-24% control)
[18]; 4 WAT, 5.6 kg/h
  post-emergent herbicidal activity index: 1 (25-49% control)
[19]; 2 WAT, 1.12 kg/h
  post-emergent herbicidal activity index: 0 (0-24% control)
[19]; 4 WAT, 5.6 kg/h
  post-emergent herbicidal activity index: 2 (50-74% control)
[20]; 11.2 kg/h
  post-emergent herbicidal activity index: 0 (0-24% control)
[20]; 56.0 kg/h
  post-emergent herbicidal activity index: 2 (50-74% control)

## CCOC(=O)CNCP(=O)(OCCN1CCCC1)OCCN1CCCC1 [Example 24, glycine, N-[[bis[2-(1-pyrrolidinyl)ethoxy]phosphinyl]methyl]-, ethyl ester]
[1]; Table I, 4 WAT, 5.6 kg/h
  post-emergent herbicidal activity index: 2 (50-74% control)
[1]; Table I, 4 WAT, 11.2 kg/h
  post-emergent herbicidal activity index: 3 (75-99% control)
[1]; Table II, 4 WAT, 1.12 kg/h
  post-emergent herbicidal activity index: 1 (25-49% control)
[1]; Table II, 4 WAT, 5.6 kg/h
  post-emergent herbicidal activity index: 3 (75-99% control)
[2]; 5.6 kg/h
  post-emergent herbicidal activity index: 1 (25-49% control)
[2]; 11.2 kg/h
  post-emergent herbicidal activity index: 1 (25-49% control)
[3]; Table I, 5.6 kg/h
  post-emergent herbicidal activity index: 1 (25-49% control)
[3]; Table I, 11.2 kg/h
  post-emergent herbicidal activity index: 2 (50-74% control)
[3]; Table II, 1.12 kg/h
  post-emergent herbicidal activity index: 0 (0-24% control)
[3]; Table II, 5.6 kg/h
  post-emergent herbicidal activity index: 3 (75-99% control)
[4]; 4 WAT, 1.12 kg/h
  post-emergent herbicidal activity index: 2 (50-74% control)
[4]; 4 WAT, 5.6 kg/h
  post-emergent herbicidal activity index: 4 (100% control)
[5]; Table I, 4 WAT, 5.6 kg/h
  post-emergent herbicidal activity index: 0 (0-24% control)
[5]; Table I, 4 WAT, 11.2 kg/h
  post-emergent herbicidal activity index: 1 (25-49% control)
[5]; Table II, 4 WAT, 1.12 kg/h
  post-emergent herbicidal activity index: 0 (0-24% control)
[5]; Table II, 4 WAT, 5.6 kg/h
  post-emergent herbicidal activity index: 2 (50-74% control)
[6]; 4 WAT
  post-emergent herbicidal activity index: 1 (25-49% control)
[7]; 5.6 kg/h
  post-emergent herbicidal activity index: 1 (25-49% control)
[7]; 11.2 kg/h
  post-emergent herbicidal activity index: 2 (50-74% control)
[8]; Table I, 4 WAT, 5.6 kg/h
  post-emergent herbicidal activity index: 3 (75-99% control)
[8]; Table I, 4 WAT, 11.2 kg/h
  post-emergent herbicidal activity index: 1 (25-49% control)
[8]; Table II, 4 WAT, 1.12 kg/h
  post-emergent herbicidal activity index: 1 (25-49% control)
[8]; Table II, 4 WAT, 5.6 kg/h
  post-emergent herbicidal activity index: 3 (75-99% control)
[9]; Table I, 4 WAT, 5.6 kg/h
  post-emergent herbicidal activity index: 1 (25-49% control)
[9]; Table I, 4 WAT, 11.2 kg/h
  post-emergent herbicidal activity index: 2 (50-74% control)
[9]; Table II, 4 WAT, 1.12 kg/h
  post-emergent herbicidal activity index: 1 (25-49% control)
[9]; Table II, 4 WAT, 5.6 kg/h
  post-emergent herbicidal activity index: 2 (50-74% control)
[10]; 4 WAT, 1.12 kg/h
  post-emergent herbicidal activity index: 1 (25-49% control)
[10]; 4 WAT, 5.6 kg/h
  post-emergent herbicidal activity index: 4 (100% control)
[11]; 5.6 kg/h
  post-emergent herbicidal activity index: 1 (25-49% control)
[11]; 11.2 kg/h
  post-emergent herbicidal activity index: 2 (50-74% control)
[12]; 4 WAT, 1.12 kg/h
  post-emergent herbicidal activity index: 0 (0-24% control)
[12]; 4 WAT, 5.6 kg/h
  post-emergent herbicidal activity index: 2 (50-74% control)
[13]; Table I, 5.6 kg/h
  post-emergent herbicidal activity index: 2 (50-74% control)
[13]; Table I, 11.2 kg/h
  post-emergent herbicidal activity index: 2 (50-74% control)
[13]; Table II, 1.12 kg/h
  post-emergent herbicidal activity index: 2 (50-74% control)
[13]; Table II, 5.6 kg/h
  post-emergent herbicidal activity index: 2 (50-74% control)
[14]; 4 WAT, 1.12 kg/h
  post-emergent herbicidal activity index: 0 (0-24% control)
[14]; 4 WAT, 5.6 kg/h
  post-emergent herbicidal activity index: 2 (50-74% control)
[15]; 4 WAT, 1.12 kg/h
  post-emergent herbicidal activity index: 0 (0-24% control)
[15]; 4 WAT, 5.6 kg/h
  post-emergent herbicidal activity index: 2 (50-74% control)
[16]; 4 WAT, 1.12 kg/h
  post-emergent herbicidal activity index: 0 (0-24% control)
[16]; 4 WAT, 5.6 kg/h
  post-emergent herbicidal activity index: 1 (25-49% control)
[17]; Table I, 4 WAT, 5.6 kg/h
  post-emergent herbicidal activity index: 1 (25-49% control)
[17]; Table I, 4 WAT, 11.2 kg/h
  post-emergent herbicidal activity index: 1 (25-49% control)
[17]; Table II, 4 WAT, 1.12 kg/h
  post-emergent herbicidal activity index: 0 (0-24% control)
[17]; Table II, 4 WAT, 5.6 kg/h
  post-emergent herbicidal activity index: 2 (50-74% control)
[18]; 4 WAT, 1.12 kg/h
  post-emergent herbicidal activity index: 0 (0-24% control)
[18]; 4 WAT, 5.6 kg/h
  post-emergent herbicidal activity index: 2 (50-74% control)
[19]; 4 WAT, 1.12 kg/h
  post-emergent herbicidal activity index: 0 (0-24% control)
[19]; 4 WAT, 5.6 kg/h
  post-emergent herbicidal activity index: 1 (25-49% control)
[20]; 5.6 kg/h
  post-emergent herbicidal activity index: 2 (50-74% control)
[20]; 11.2 kg/h
  post-emergent herbicidal activity index: 1 (25-49% control)
